What was measured:
[1] = test system: DERL-7 (IL-2 2.5 ng/mL); assay: relative IC50 (inflection point of fitted viability curve, relative to fitted max inhibition); higher = less sensitive; details: 72 h
Method: (§1)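 Drug sensitivity and resistance testing: 5 concentrations over a 10,000-fold range, 72 h at 37 °C, viability by CellTiter-Glo normalised to DMSO and benzethonium chloride controls. IC50 is the inflection point of a logistic fit (min fixed at 0, max fitted), so it is relative to the fitted maximal inhibition. Kept only where fitted max inhibition is at least 50%.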

[2] = test system: NK-92 (IL-2 2.5 ng/mL); assay: as above; details: 72 h
Method: as §1

[3] = test system: NKL (IL-2 2.5 ng/mL); assay: as above; details: 72 h
Method: as §1

[4] = test system: normal NK cells expanded with K562-aAPC; assay: percent inhibition of viability; higher = more inhibition; details: 72 h, IL-2 2.5 ng/mL
Method: (§2)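 Drug sensitivity and resistance testing on K562-aAPC-expanded normal NK cells: 5 concentrations (10-fold steps over a 10,000-fold range), 72 h at 37 °C, viability by CellTiter-Glo normalised to DMSO and benzethonium chloride controls; DSS from the fitted curve.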

[5] = test system: DERL-7 (IL-2 2.5 ng/mL); assay: as above; details: 72 h
[6] = test system: IMC-1 (IL-2 20 ng/mL); assay: as above; details: 72 h
[7] = test system: KAI3 (IL-2 2.5 ng/mL); assay: as above; details: 72 h
[8] = test system: KHYG-1 (IL-2 2.5 ng/mL); assay: as above; details: 72 h
[9] = test system: NK-92 (IL-2 2.5 ng/mL); assay: as above; details: 72 h
[10] = test system: NK-YS (IL-2 2.5 ng/mL); assay: as above; details: 72 h
[11] = test system: NKL (IL-2 2.5 ng/mL); assay: as above; details: 72 h
[12] = test system: SNK-6 (IL-2 2.5 ng/mL); assay: as above; details: 72 h
[13] = test system: YT (IL-2 2.5 ng/mL); assay: as above; details: 72 h
[14] = test system: normal primary NK cells, pool 1 (3 donors) (IL-2 2.5 ng/mL); assay: as above; details: 72 h
[15] = test system: normal primary NK cells, pool 1 (3 donors), resting (IL-2 0 ng/mL); assay: as above; details: 72 h
[16] = test system: normal primary NK cells, pool 2 (3 donors) (IL-2 2.5 ng/mL); assay: as above; details: 72 h
[17] = test system: normal primary NK cells, pool 3 (3 donors) (IL-2 2.5 ng/mL); assay: as above; details: 72 h
[18] = test system: normal NK cells expanded with K562-aAPC; assay: drug sensitivity score (DSS) (DSS units); higher = more sensitive; extreme values may be limits of the assay; details: 72 h; IL-2 2.5 ng/mL
Method: as §2

[19] = test system: DERL-7 (IL-2 2.5 ng/mL); assay: as above; details: 72 h
[20] = test system: IMC-1 (IL-2 20 ng/mL); assay: as above; details: 72 h
[21] = test system: KAI3 (IL-2 2.5 ng/mL); assay: as above; details: 72 h
[22] = test system: KHYG-1 (IL-2 2.5 ng/mL); assay: as above; details: 72 h
[23] = test system: NK-92 (IL-2 2.5 ng/mL); assay: as above; details: 72 h
[24] = test system: NK-YS (IL-2 2.5 ng/mL); assay: as above; details: 72 h
[25] = test system: NKL (IL-2 2.5 ng/mL); assay: as above; details: 72 h
[26] = test system: SNK-6 (IL-2 2.5 ng/mL); assay: as above; details: 72 h
[27] = test system: YT (IL-2 2.5 ng/mL); assay: as above; details: 72 h
[28] = test system: normal primary NK cells, pool 1 (3 donors) (IL-2 2.5 ng/mL); assay: as above; details: 72 h
[29] = test system: normal primary NK cells, pool 1 (3 donors), resting (IL-2 0 ng/mL); assay: as above; details: 72 h
[30] = test system: normal primary NK cells, pool 2 (3 donors) (IL-2 2.5 ng/mL); assay: as above; details: 72 h
[31] = test system: normal primary NK cells, pool 3 (3 donors) (IL-2 2.5 ng/mL); assay: as above; details: 72 h

C[C@H](Nc1ncnc2nc[nH]c12)c1cc2cccc(Cl)c2c(=O)n1-c1ccccc1 [Duvelisib]
relative IC50 [1]: 44.5 nM

O=c1sn(-c2cccc3ccccc23)c(=O)n1Cc1ccccc1 [Tideglusib]
relative IC50 [2]: > 3000 nM

CC(C)NC[C@@H](C(=O)N1CCN(c2ncnc3c2[C@H](C)C[C@H]3O)CC1)c1ccc(Cl)cc1 [GDC-0068]
relative IC50 [1]: 1030 nM

Nc1nc(OCc2cc(Br)cs2)c2[nH]cnc2n1 [Lomeguatrib]
relative IC50 [3]: 1900 nM

COc1ccc2c(OCc3nnc4ccc(-c5ccccc5)nn34)ccnc2c1 [AMG-208]
relative IC50 [1]: > 2500 nM

C=C(c1ccc(C(=O)O)cc1)c1cc2c(cc1C)C(C)(C)CCC2(C)C [Bexarotene]
relative IC50 [3]: 208 nM

O=c1sn(-c2cccc3ccccc23)c(=O)n1Cc1ccccc1 [Tideglusib] (max concentration tested 3000 nM)
percent inhibition of viability ([4]; 0.3 nM): -6.95% | percent inhibition of viability ([4]; 3 nM): -7.17% | percent inhibition of viability ([4]; 30 nM): -3.75% | percent inhibition of viability ([4]; 300 nM): -3.95% | percent inhibition of viability ([4]; 3000 nM): 10.8% | percent inhibition of viability ([5]; 0.3 nM): 0.33% | percent inhibition of viability ([5]; 3 nM): 8.56% | percent inhibition of viability ([5]; 30 nM): 5.78% | percent inhibition of viability ([5]; 300 nM): 9.73% | percent inhibition of viability ([5]; 3000 nM): -4.19% | percent inhibition of viability ([6]; 0.3 nM): -9.15% | percent inhibition of viability ([6]; 3 nM): -4.57% | percent inhibition of viability ([6]; 30 nM): -3.56% | percent inhibition of viability ([6]; 300 nM): -1.74% | percent inhibition of viability ([6]; 3000 nM): 14.2% | percent inhibition of viability ([7]; 0.3 nM): 4.52% | percent inhibition of viability ([7]; 3 nM): 0.51% | percent inhibition of viability ([7]; 30 nM): -8.06% | percent inhibition of viability ([7]; 300 nM): 2.48% | percent inhibition of viability ([7]; 3000 nM): 28.9% | percent inhibition of viability ([8]; 0.3 nM): 0.24% | percent inhibition of viability ([8]; 3 nM): -8.35% | percent inhibition of viability ([8]; 30 nM): -8.09% | percent inhibition of viability ([8]; 300 nM): -2.62% | percent inhibition of viability ([8]; 3000 nM): 8.61% | percent inhibition of viability ([9]; 0.3 nM): -5% | percent inhibition of viability ([9]; 3 nM): -12.7% | percent inhibition of viability ([9]; 30 nM): -13.7% | percent inhibition of viability ([9]; 300 nM): -11.8% | percent inhibition of viability ([9]; 3000 nM): -1.4% | percent inhibition of viability ([10]; 0.3 nM): -1.28% | percent inhibition of viability ([10]; 3 nM): -6.26% | percent inhibition of viability ([10]; 30 nM): -8.67% | percent inhibition of viability ([10]; 300 nM): -1.58% | percent inhibition of viability ([10]; 3000 nM): 10.1% | percent inhibition of viability ([11]; 0.3 nM): -0.96% | percent inhibition of viability ([11]; 3 nM): -13.4% | percent inhibition of viability ([11]; 30 nM): -11.3% | percent inhibition of viability ([11]; 300 nM): 4.69% | percent inhibition of viability ([11]; 3000 nM): 13.7% | percent inhibition of viability ([12]; 0.3 nM): -1.78% | percent inhibition of viability ([12]; 3 nM): 4.09% | percent inhibition of viability ([12]; 30 nM): -8.27% | percent inhibition of viability ([12]; 300 nM): 7.39% | percent inhibition of viability ([12]; 3000 nM): 0.93% | percent inhibition of viability ([13]; 0.3 nM): 0.91% | percent inhibition of viability ([13]; 3 nM): -5.07% | percent inhibition of viability ([13]; 30 nM): -4.89% | percent inhibition of viability ([13]; 300 nM): -0.66% | percent inhibition of viability ([13]; 3000 nM): 12.1% | percent inhibition of viability ([14]; 0.3 nM): -1.89% | percent inhibition of viability ([14]; 3 nM): -5.16% | percent inhibition of viability ([14]; 30 nM): 15.6% | percent inhibition of viability ([14]; 300 nM): 9.54% | percent inhibition of viability ([14]; 3000 nM): 6.41% | percent inhibition of viability ([15]; 0.3 nM): 2.26% | percent inhibition of viability ([15]; 3 nM): 8.84% | percent inhibition of viability ([15]; 30 nM): 16.1% | percent inhibition of viability ([15]; 300 nM): 20.2% | percent inhibition of viability ([15]; 3000 nM): 27.7% | percent inhibition of viability ([16]; 0.3 nM): -9.87% | percent inhibition of viability ([16]; 3 nM): -9.74% | percent inhibition of viability ([16]; 30 nM): -4.05% | percent inhibition of viability ([16]; 300 nM): -1.59% | percent inhibition of viability ([16]; 3000 nM): 6.8% | percent inhibition of viability ([17]; 0.3 nM): -6.37% | percent inhibition of viability ([17]; 3 nM): -9.25% | percent inhibition of viability ([17]; 30 nM): 6.54% | percent inhibition of viability ([17]; 300 nM): 6.09% | percent inhibition of viability ([17]; 3000 nM): 5.7% | drug sensitivity score [18]: 0 | drug sensitivity score [19]: 0 | drug sensitivity score [20]: 0.12 | drug sensitivity score [21]: 1.59 | drug sensitivity score [22]: 0 | drug sensitivity score [23]: 0 | drug sensitivity score [24]: 0 | drug sensitivity score [25]: 0.46 | drug sensitivity score [26]: 0 | drug sensitivity score [27]: 0.04 | drug sensitivity score [28]: 0.12 | drug sensitivity score [29]: 4.87 | drug sensitivity score [30]: 0 | drug sensitivity score [31]: 0
